Experimental findings from US8637537B2, “Serine/threonine kinase inhibitors” (Genentech, Inc., priority 2011, dated 2014) are described below.

For the first experiment, the target named is T1, human recombinant GST-PAK1-KD protein (Homo sapiens, UniProt Q13153).
T1 construct: residues #249-545 of human PAK1, UniProtKP/Swiss Q13153; His6 (N); made in house; host or cells: Sf9 insect cells, pAcGP67 baculovirus expression vector
T1 sequence (Q13153 249-545): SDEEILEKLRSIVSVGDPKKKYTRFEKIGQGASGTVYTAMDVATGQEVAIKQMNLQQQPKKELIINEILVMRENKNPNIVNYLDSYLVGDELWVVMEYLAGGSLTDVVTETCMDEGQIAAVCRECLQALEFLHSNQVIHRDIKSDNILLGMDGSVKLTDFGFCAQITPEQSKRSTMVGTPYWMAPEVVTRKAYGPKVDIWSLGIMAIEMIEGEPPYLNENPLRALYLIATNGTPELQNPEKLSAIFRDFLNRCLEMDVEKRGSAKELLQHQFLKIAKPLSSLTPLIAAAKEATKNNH
Put plainly: GST-PAK1-KD (kinase domain) biochemical assay, microfluidic mobility shift. Particulars: Table I, PAK1 Ki class; read-out: Ki. The protocol:
Activity of human recombinant GST-PAK1-KD protein was assessed in vitro assay by observing the phosphorylation of a fluorogenic peptide substrate.
The peptide substrate is a consensus sequence based on various PAK1 substrates reported in the scientific literature. […] Incubations were carried out at 22° C. in MatriCal MP101 384-well Metriplates™. […] Following the 30-minute incubation, the assay mixtures were quenched by the addition of 3 μL of 250 mM EDTA, and the substrate and phosphorylated product were separated by capillary electrophoresis and detected using LabChip® Caliper 3000 (Caliper Life Sciences).
`F[C@H]1C[C@H]1c1cc(Nc2ccnc(NCc3ccc4[nH]cnc4c3Cl)n2)n[nH]1` [I-76, N^2-((4-chloro-1H-benzo[d]imidazol-5-yl)methyl)-N^4-(5-((1S,2S)-2-fluorocyclopropyl)-1H-pyrazol-3-yl)pyrimidine-2,4-diamine]: the Ki was less than 50 nM.

`CC(C)c1cc(Nc2ccnc(NCc3cccc4[nH]ccc34)n2)n[nH]1` [I-58, N^2-((1H-indol-4-yl)methyl)-N^4-(5-isopropyl-1H-pyrazol-3-yl)pyrimidine-2,4-diamine]: the Ki was 50 to 250 nM.

For the molecule `Fc1cnc(NCc2cccc3[nH]ccc23)nc1Nc1cc(C2CC2)[nH]n1` [I-120], the Ki is 50 to 250 nM.

Turning to `Fc1cc2[nH]cnc2cc1CNc1nccc(Nc2cc(C3CC3)[nH]n2)n1` [I-28, N^4-(5-Cyclopropyl-1H-pyrazol-3-yl)-N^2-((6-fluoro-1H-benzo[d]imidazol-5-yl)methyl)pyrimidine-2,4-diamine], the inhibitory constant (Ki) lay within 50 to 250 nM.

Regarding `C[C@H](Nc1ncc(Cl)c(Nc2cc(C3CC3)[nH]n2)n1)c1ccc2[nH]ccc2c1` [I-110, (S)—N^2-(1-(1H-indol-5-yl)ethyl)-5-chloro-N^4-(5-cyclopropyl-1H-pyrazol-3-yl)pyrimidine-2,4-diamine], the Ki was 250 to 1000 nM.

In the case of `FC1(F)C[C@@H]1c1cc(Nc2ccnc(NCc3ccc4[nH]cnc4c3Cl)n2)n[nH]1` [I-75, (R)—N^2-((4-chloro-1H-benzo[d]imidazol-5-yl)methyl)-N^4-(5-(2,2-difluorocyclopropyl)-1H-pyrazol-3-yl)pyrimidine-2,4-diamine], the Ki was less than 50 nM.

In the case of `c1cc(Nc2cc(C3CC3)[nH]n2)nc(NCc2ccc3cn[nH]c3c2)n1` [I-103, N^4-(5-cyclopropyl-1H-pyrazol-3-yl)-N^2-(1H-indazol-6-ylmethyl)pyrimidine-2,4-diamine], the Ki is greater than 1000 nM.

The same experiment, now with this note: Table II, PAK1 Ki class; read-out: Ki.
Regarding `CN(C)CCN(Cc1cc(F)cc2[nH]ncc12)c1ncc(F)c(Nc2cc(C3CC3)[nH]n2)n1` [II-86, N^4-(5-cyclopropyl-1H-pyrazol-3-yl)-N^2-(2-(dimethylamino)ethyl)-5-fluoro-N^2-((6-fluoro-1H-indazol-4-yl)methyl)pyrimidine-2,4-diamine], the Ki is less than 50 nM.

For `Cc1nc2c(CNc3nccc(Nc4cc(C5CC5)[nH]n4)n3)cc(Cl)cc2[nH]1` [II-17, N^2-((6-Chloro-2-methyl-1H-benzo[d]imidazol-4-yl)methyl)-N^4-(5-cyclopropyl-1H-pyrazol-3-yl)pyrimidine-2,4-diamine], the inhibition constant Ki was less than 50 nM.

In the case of `C[C@H](c1cc(Nc2ccnc(NCc3ccc4[nH]cnc4c3Cl)n2)n[nH]1)C1CC1` [II-79, (S)-N^2-((4-chloro-1H-benzo[d]imidazol-5-yl)methyl)-N^4-(5-(1-cyclopropylethyl)-1H-pyrazol-3-yl)pyrimidine-2,4-diamine], the Ki is less than 50 nM.

On to `Cc1cc(Nc2ccnc(N(C)Cc3ccc4[nH]cnc4c3Cl)n2)n[nH]1` [II-76, N^2-((4-chloro-1H-benzo[d]imidazol-5-yl)methyl)-N^2-methyl-N^4-(5-methyl-1H-pyrazol-3-yl)pyrimidine-2,4-diamine], for which the inhibition constant Ki is less than 50 nM.

For the molecule `Cc1nc2c(CNc3ncc(F)c(Nc4cc(C5CC5)[nH]n4)n3)cc(Cl)cc2[nH]1` [II-32, N^2-((6-Chloro-2-methyl-1H-benzo[d]imidazol-4-yl)methyl)-N^4-(5-cyclopropyl-1H-pyrazol-3-yl)-5-fluoropyrimidine-2,4-diamine], the Ki fell in the range of 50 to 250 nM.

`C[C@H](Nc1ncc(F)c(Nc2cc(C3CC3)[nH]n2)n1)c1cc(F)cc2[nH]ncc12` [II-71, (S)-N^4-(5-cyclopropyl-1H-pyrazol-3-yl)-5-fluoro-N^2-(1-(6-fluoro-1H-indazol-4-yl)ethyl)pyrimidine-2,4-diamine]: the inhibitory constant (Ki) was less than 50 nM.

In the case of `Cc1cc(CNc2nccc(Nc3cc(C4CC4)[nH]n3)n2)c2nc[nH]c2c1` [II-28, N^4-(5-Cyclopropyl-1H-pyrazol-3-yl)-N^2-((6-methyl-1H-benzo[d]imidazol-4-yl)methyl)-pyrimidine-2,4-diamine], the Ki is 50 to 250 nM.

The term Ki denotes the dissociation constant of the complex between target and ligand, obtained from inhibition or displacement.
